Test results taken from patent US20260345624A1, “TREATMENT OF PROSTATE CANCER BY PROMOTING PDE4D7” (KONINKLIJKE PHILIPS N.V., priority 2022, published 2026).
“Also recorded” adds a separate entry of the source.

Experiments:
advanced PCa = conditions: in combination with docetaxel; cited from earlier work
[1] = system: PDE4D7-knockdown LNCaP P1 cells; experiment: xCELLigence real-time proliferation of PDE4D7-knockdown P1 LNCaP cells; assay type: cell-based; conditions: for resistance to olaparib, PDE4D7-reduced cells: olaparib 10 and 30 μM
Source text: Stable shRNA-mediated lentiviral transduced LNCaP cell lines were generated by AMSBIO (Table 1). Briefly, shRNA-PDE4D7 was cloned into a lentivector and delivered into LNCaP clone FGC cells (ATCC) via lentivirus (MOI=10). Cells were maintained in puromycin-supplemented medium prior to selection of stably transduced cells. A stable shRNA-PDE4D7 LNCaP cell line was then re-transduced with lentivirus delivering PDE4D7 to generate a re-introduced cell line. Scrambled-shRNA was used as a control. All cells were cultured in RPMI 1640 medium (Gibco D), supplemented with 10% (v/v) foetal bovine serum, 1% (v/v) L-Glutamine and 1% (v/v) penicillin/streptomycin, and stored within a 37 °C incubator with 5% CO2.
(§1) xCELLigence Real-Time Cell Analysis (RTCA)
(§2) Real-time cell growth was analysed using the xCELLigence RTCA system (Agilent), which measures real-time cell adhesion across gold microelectrode biosensors on 96 well electronic plates (E-plates) within a 37 °C incubator with 5% CO2. Cellular adhesion influences electrical impedance which is converted into the cell index (CI) via RTCA software. Initial background measurements were recorded with 100 μL RPMI 1640 medium, followed by addition of 100 μL LNCaP cell suspension (10,000 cells/wells) for measurement of CI over time. Approximately 24 h after seeding, cells were treated with specified concentrations of drugs. Negative controls containing either 0.1% DMSO or untreated cells were also included. CI was transformed to normalised CI via the RTCA software to timepoint of treatment.

LNCaP WT cells = experiment: xCELLigence real-time proliferation of WT LNCaP cells; assay type: cell-based; conditions: for proliferation of WT LNCaPs: PDE4 activator, 1 and 10 μM
Protocol: as §1, §2

mCRPC = conditions: Lloyd et al., 2020; cited from earlier work
P1-PDE4D7+/+ LNCaP cells = experiment: xCELLigence real-time proliferation of P1 LNCaP cells with PDE4D7 re-expression; assay type: cell-based
[2] = system: PARP cleavage in LNCaP P1; experiment: PARP/cleaved PARP western blot in PDE4D7-knockdown P1 LNCaP; assay type: cell-based; conditions: N=3
Protocol: (§3) FIG. 12: Ratio of PARP and cleaved PARP (PARPc) by western blot analysis in LNCaP WT and LNCaP PDE4D7 knockdown cell line P1 upon incubation with 0.1% DMSO (control), 10 μM Olaparib, and 10 nM docetaxel including quantitation of western blot bands normalised to DMSO.
(§4) Cells were lysed in 3T3 lysis buffer (50 mM NaCl, 50 mM NaF, 30 mM sodium pyrophosphate, 25 mM HEPES, 2.5 mM EDTA, 10% (v/v) glycerol, 1% (v/v) Triton X-100; pH 7.5) supplemented with cOmplete™ EDTA-free protease inhibitor cocktail (Sigma-Aldrich). Lysed cells were rotated end-over-end for 30 minutes at 4 °C, then centrifuged for 10 minutes at 13,000 RPM at […]. Supernatants were collected and protein concentration determined via Bradford assay. Equal concentrations of protein samples were separated via SDS-polyacrylamide gel electrophoresis (SDS-PAGE) and transferred onto nitrocellulose membranes for western blot. Membranes were blocked in 5% (w/v) milk powder in TBS-T for 1 h prior to primary and secondary antibody incubations. […]

[3] = system: PARP cleavage in LNCaP WT; experiment: PARP/cleaved PARP western blot in WT LNCaP; assay type: cell-based; conditions: N=3
Protocol: as §3, §4

[4] = system: cAMP at cytosol of P1 LNCaPs; experiment: cAMP FRET (CUTie) in cytosol of P1 LNCaP; assay type: cell-based; conditions: rolipram
Protocol: (§5) FIG. 18: Influence of PDE4D7 expression on cAMP dynamics within LNCaPs. Analysis of FRET ratio (YFP/CFP) at cytosol of WT (A) or P1 (C) LNCaPs, or at membrane of WT (B) or P1 (D) LNCaPs upon treatment with rolipram or combined treatment of forskolin+IBMX. (E & F) Real-time growth analysis of WT (G) and P1 (H) cells upon treatment with PDE4 activator MR-L2 (1-10 μM). Slope analysis from 0-48 post-treatment. Mean+/−SEM, N=3, **p<0.01, ***p<0.001.
(§6) Genetically encoded cAMP-fluorescent resonance energy transfer (FRET) probes were used to investigate CAMP dynamics at subcellular regions in WT and P1 LNCaPs. […] CUTie probes targeting the plasma-membrane (AKAP-79) or cytosol (CYTO-pDUAL) were obtained from the Zaccolo lab (REF). […] Given that PDE4D7 is known to be substantially membrane located [FIG. 1C]

[5] = system: cAMP at membrane of WT LNCaPs; experiment: cAMP FRET (CUTie) at plasma membrane of WT LNCaP; assay type: cell-based; conditions: rolipram
Protocol: as §5, §6

[6] = system: cAMP at membrane of P1 LNCaPs; experiment: cAMP FRET (CUTie) at plasma membrane of P1 LNCaP; assay type: cell-based; conditions: rolipram
Protocol: as §5, §6

[7] = system: cAMP at cytosol of WT LNCaPs; experiment: cAMP FRET (CUTie) in cytosol of WT LNCaP; assay type: cell-based; conditions: rolipram
Protocol: as §5, §6

LNCaP cells = conditions: Feiersinger et al., 2018; cited from earlier work

SMILES: COC(=O)Nc1nc2ccc(C(=O)c3ccccc3)cc2[nH]1 [mebendazole]
- potential in advanced PCa treatment (advanced PCa): showed potential in advanced PCa treatment in combination with docetaxel
- effect on P1 cells ([1]; mebendazole 1-10 μM, compared with WT): far more substantial and more significant, with initiation of immediate cell death in the cells at both concentrations; also recorded: PDE4D7-knockdown confers sensitivity to mebendazole in comparison to WT LNCaPs
- WT cell growth (LNCaP WT cells; mebendazole 1-10 μM): significant downregulation of cell growth in a dose-dependent manner

SMILES: CC#C[C@]1(O)CC[C@H]2[C@@H]3CCC4=CC(=O)CCC4=C3[C@@H](c3ccc(N(C)C)cc3)C[C@@]21C [mifepristone]
- proliferation of P1 LNCaPs ([1]; mifepristone 30 μM): significantly enhanced proliferation
- growth curve over time, P1 LNCaPs ([1]; mifepristone 30 μM, compared to lower concentrations): initial growth was inhibited compared to lower concentrations, however this effect eventually wore off
- P1 cell proliferation vs DMSO ([1]; mifepristone 0.3-10 μM): neither WT or P1 cell proliferation were reduced compared to DMSO
- growth of WT LNCaPs (LNCaP WT cells; mifepristone 30 μM): successfully inhibited growth
- WT cell proliferation vs DMSO (LNCaP WT cells; mifepristone 0.3-10 μM): neither WT or P1 cell proliferation were reduced compared to DMSO

SMILES: C[C@@H]1COCCN1c1cc(C2([S@](C)(=N)=O)CC2)nc(-c2cc[nH]c3nccc2-3)n1 [ceralasertib, Ceralasertib]
- synergistic effects in combination with olaparib (mCRPC): enhance synergistic effects in combination with olaparib in mCRPC; also recorded: enhance synergistic effects in combination with olaparib in metastatic CRPC
- sensitivity from growth curves, PDE4D7-knockdown (compared with WT) ([1]; ceralasertib 0-30 μM): highly susceptible to ATR-inhibition via ceralasertib
- growth inhibition, P1 ([1]; ceralasertib 10-30 μM): most significant growth inhibition
- sensitivity of PDE4D7-knockdown cells ([1]; ceralasertib 10-30 μM): extremely sensitive to ATR inhibition via ceralasertib
- growth inhibition independent of PDE4D7 expression, P1 ([1]; summary statement, WT vs P1): reduce tumor growth independent of PDE4D7 expression levels; also recorded: inhibit LNCaP cell growth irrespective of PDE4D7 expression status
- growth inhibition, WT (LNCaP WT cells; ceralasertib 10-30 μM): most significant growth inhibition
- growth inhibition independent of PDE4D7 expression, WT (LNCaP WT cells; summary statement, WT vs P1): reduce tumor growth independent of PDE4D7 expression levels; also recorded: inhibit LNCaP cell growth irrespective of PDE4D7 expression status

SMILES: CCc1nc(-c2ccc(Cl)c(F)c2)nn1CC(=O)NCc1cc(Cl)cc(Cl)c1 [ML-R2]
- growth of P1 cells ([1]; PDE4 activator, 1-10 μM): inhibition of cell growth in P1 cells
- growth of P1 cells ([1]; PDE4 activator, 1-10 μM, listed as MLR2): attenuates growth of P1 LNCaPs
- growth of P1 cells ([1]; PDE4 activator, 1-10 μM, listed as MR-L2): inhibition of growth in P1 cells
- proliferation of WT LNCaPs (LNCaP WT cells): no effect on proliferation in WT LNCaPs at either concentration
- proliferation of WT LNCaPs (LNCaP WT cells; listed as MLR2): no effect on growth of WT LNCaPs
- proliferation of WT LNCaPs (LNCaP WT cells; listed as MR-L2): no effect on proliferation in WT LNCaPs
- MLR2 sensitivity after PDE4D7 reintroduction to P1 (P1-PDE4D7+/+ LNCaP cells; PDE4 activator, 10 μM): rescues phenotype of WT LNCaPs on MLR2 sensitivity

SMILES: CC(=O)O[C@@]12CO[C@@H]1C[C@H](O)[C@@]1(C)C(=O)[C@H](O)C3=C(C)[C@@H](OC(=O)[C@H](O)[C@@H](NC(=O)OC(C)(C)C)c4ccccc4)C[C@@](O)([C@@H](OC(=O)c4ccccc4)[C@H]21)C3(C)C [docetaxel, Docetaxel]
- cleaved PARP ratio, P1 LNCaP ([2]; docetaxel 10 nM): No increase in cleaved PARP ratio
- growth of P1 cells ([1]; docetaxel 10 μM): no effect
- growth of PDE4D7-knockdown LNCaPs vs DMSO ([1]; docetaxel, all concentrations (5-25 μM) except 10 μM, slope 0-48 h): significantly reduced growth
- growth of WT LNCaPs (LNCaP WT cells; docetaxel 10 μM): effective in WT
- growth of WT LNCaPs vs DMSO (LNCaP WT cells; docetaxel, all concentrations (5-25 μM), slope 0-48 h): significantly reduced growth
- sensitivity to docetaxel after PDE4D7 re-introduction, vs P1 (P1-PDE4D7+/+ LNCaP cells; docetaxel 10 μM): more sensitive to docetaxel treatment than P1
- PARP cleavage, WT LNCaP ([3]; docetaxel 10 nM): increased PARP cleavage

SMILES: COc1ccc(C2CNC(=O)C2)cc1OC1CCCC1 (stereo not shown) [rolipram]
- FRET ratio, cytosol, P1 [4]: no observable difference
- FRET ratio / cAMP, membrane, WT [5]: downregulation of FRET ratio in the membrane compartment of WT LNCaPs, indicating an increase in cAMP concentration
- FRET ratio, membrane, P1 [6]: no obvious difference in FRET ratio
- FRET ratio, cytosol, WT [7]: no observable difference

SMILES: O=C(c1cc(Cc2n[nH]c(=O)c3ccccc23)ccc1F)N1CCN(C(=O)C2CC2)CC1 [olaparib, Olaparib]
- cleaved PARP ratio, P1 LNCaP ([2]; olaparib 10 μM): No increase in cleaved PARP ratio
- effect on PDE4D7-deficient LNCaP proliferation ([1]; olaparib 0-30 μM): minimal
- growth rate (slope analysis), P1 ([1]; olaparib 0.3 and 1 μM, slope 0-30 h): unexpected reduction in slope
- resistance to olaparib, PDE4D7-reduced cells [1]: resistant to olaparib; also recorded: resistance
- resistance to olaparib, PDE4D7-reduced cells ([1]; listed as Olaparib): resistance
- resistance to PARP inhibition via olaparib upon PDE4D7 knockdown ([1]; overall conclusion): resistant to PARP inhibition via olaparib; also recorded: confers resistance to PARP-inhibition via olaparib; also recorded: enhances resistance to olaparib
- LNCaP WT proliferation (LNCaP WT cells; olaparib 0-30 μM): decreased in a dose-dependent manner
- growth rate (slope analysis), WT (LNCaP WT cells; olaparib 3, 10 and 30 μM, slope 0-30 h): significant reductions in WT growth
- sensitivity to olaparib after PDE4D7 re-introduction (P1-PDE4D7+/+ LNCaP cells; olaparib 10 μM): more sensitive to olaparib treatment; also recorded: re-sensitised
- sensitivity to olaparib after PDE4D7 re-introduction (P1-PDE4D7+/+ LNCaP cells; olaparib 10 μM, listed as Olaparib): enhances sensitivity to Olaparib
- growth vs olaparib-treated P1 and DMSO-treated P1-PDE4D7+/+ cells (P1-PDE4D7+/+ LNCaP cells; olaparib 10 μM, slope 0-48 h): statistically significant downregulation in growth
- effect against LNCaP cells (LNCaP cells): effective against LNCaP cells
- PARP cleavage, WT LNCaP ([3]; olaparib 10 μM): increased PARP cleavage
